{"source": "patent US20100150938A1", "about": "“METHODS AND COMPOSITIONS FOR REDUCING INFLAMMATION AND TREATING INFLAMMATORY DISORDERS” (UNIVERSITY OF MASSACHUSETTS, priority 2008, published 2010)", "key": {"[1]": {"system": "mice", "assay": "Stereotaxic brain microinjection, microglial recruitment (F4/80)", "assay_type": "in vivo, mouse", "settings": "wild type mice, 1 μl of 1 mg/ml into striatum, 48 h", "method": "Injections were performed as described^27. Briefly, six week old mice (n=4 in each group) were anesthetized with ketamine (100 mg/kg i.p.; Webster) and xylazine (10 mg/kg i.p.; Webster), placed on a homoeothermic heating blanket (Harvard Apparatus) and immobilized in a stereotaxic frame (Stoelting). A linear skin incision was made under sterile conditions, and a small hole was created in the skull using a dental drill 1 mm anterior and 2 mm lateral to bregma over both hemispheres. 1 μl Aβ in sterile pyrogen-free saline (1 mg/ml) was inoculated on the left side, and the same amount of revAβ was inoculated on the right side, using separate Hamilton syringes. Mice were allowed to fully recover on a heating blanket. After 48 hours, the mice were anesthetized with ketamine/xylazine and transcardially perfused with 4% paraformaldehyde in PBS. Brains were removed, placed in 4% PFA overnight at 4° C., and then transferred to PBS and stored at 4° C. until sectioning. Coronal 60 μm sections were taken using a vibratome (Leica). […] To quantify the number of microglia recruited to sites of microinjection, serial sections from each site of injection were visualized by fluorescence microscopy (Nikon Eclipse E400) and digitally photographed. […] Fluorescence intensity of microglia immunoreactive for F4/80 at each injection site was quantified using ImageJ (NIH)."}, "[2]": {"system": "caspase-1", "assay": "Caspase-1 cleavage/activation in mouse macrophages (Western blot p10)", "assay_type": "cell-based", "settings": "LPS-primed wild type bone marrow-derived macrophages, Aβ and reverse Aβ 10 μM", "method": "Bone marrow derived macrophages were generated as described (Severa, M et al. Journal of Biological Chemistry 281:26188-26195 (2006)). Human PBMCs were isolated by from whole blood of healthy volunteers by density gradient centrifugation. Lysis of red blood cells was performed using red blood cell lysis buffer (Sigma). Experiments in PBMCs and macrophages were carried out at a cell density of 2×10^6 cells/ml. All primary cells and cell lines except THP-1 cells were cultured in DMEM supplemented with L-glutamine, ciprofloxacin (Cellgro, Manassas, Va.) and 10% fetal calf serum (Hyclone, Logan, Utah). THP-1 cells were cultured in RPMI supplemented with 10% fetal calf serum (Hyclone), L-glutamine, sodium pyruvate (Cellgro), and ciprofloxacin. One day prior to stimulation, THP-1 cells were differentiated using 0.5 μM PMA for three hours, washed three times and plated for stimulation. All experiments that were performed for Western blot analysis were carried out in serum free DMEM medium. ATP stimulations were carried out at 5 mM one hour prior to harvesting supernatants.\nCell culture supernatants were precipitated by adding an equal volume of methanol and 0.25 volumes of chloroform, vortexed and centrifuged at 20.000×g for 10 min. The upper phase was discarded and 500 μl of methanol was added to the interphase. This mixture was centrifuged at 20.000×g for 10 min and the protein pellet dried at 55° C., resuspended in Laemmli buffer and boiled at 99° C. for 5 min. Samples were separated by SDS-PAGE (15%) and transferred onto nitrocellulose membranes. As indicated, blots were incubated with rabbit polyclonal antibody to anti murine caspase-1 p10 (sc-514, Santa Cruz Biotechnology, Santa Cruz, Calif.), rabbit polyclonal anti human caspase-1 p10 (sc-515, Santa Cruz Biotechnology), rabbit polyclonal anti human cleaved IL-1β (Asp116) (Cell Signaling, Boston, Mass.) or rabbit polyclonal anti murine cathepsin B (R&D Systems, Minneapolis, Minn.).\nCell culture supernatants were precipitated by adding an equal volume of methanol and 0.25 volumes of chloroform, vortexed and centrifuged at 20,000×g for 10 min. The upper phase was discarded and 500 μl of methanol was added to the interphase. This mixture was centrifuged at 20,000×g for 10 min and the protein pellet dried at 55° C., resuspended in Laemmli buffer and boiled at 99° C. for 5 min Samples were separated by SDS-PAGE (15%) and transferred onto nitrocellulose membranes. Blots were incubated with rabbit polyclonal antibody to anti murine caspase-1 p10 (sc-514, Santa Cruz Biotechnology, Santa Cruz, Calif.)."}, "[3]": {"system": "CCL-3/MIP1 a, CCL4/MIP1β and CXCL2/MIP2", "assay": "Chemokine mRNA in microglia (QRT-PCR)", "assay_type": "cell-based, mouse", "settings": "wild type microglial cells, Aβ 10 μM, 6 and 24 h", "method": "Immortalized murine microglia were seeded in 6 well tissue culture plates, incubated in the absence or presence of 10 μM Aβ, washed with PBS and lysed in 1 mL TRIZOL reagent (Invitrogen). RNA was purified by organic extraction. 5 μg of RNA from each sample was reverse transcribed using multiscribe reverse transcriptase (Applied Biosystems). Oligonucleotide primers were designed using the Primer3 Input PCR primer design program (version 0.4.0.) and QRT-PCR experiments were performed using an iQ Real-Time PCR Detection System (Bio-Rad) and Optical System Software (Version 2.0, Bio-Rad). Relative quantification of mRNA expression was calculated by the comparative cycle method as described by the manufacturer."}}, "data": [{"substance": "Aβ 1-42 peptide", "values": [{"measurement": "microglia around the injection site (F4/80)", "setting": "[1]", "result": "strong recruitment and chemotaxis of microglia"}, {"measurement": "caspase-1 cleavage (p10) induced by the stimulus", "setting": "[2]", "result": "induced caspase-1 cleavage (p10)"}, {"measurement": "gene expression of chemokines CCL-3/MIP1 a, CCL4/MIP1β and CXCL2/MIP2", "setting": "[3]", "result": "time-dependently upregulated"}]}]}
